Data reported in ChEMBL document CHEMBL3991601, “The target landscape of clinical kinase drugs” (Science, 2017).
Activity calls are given as the source filed them.

Experiments:
Actin-related protein 2 = Actin-related protein 2 (Homo sapiens, UniProt P61160)
[1] = molecular target: Adenylate kinase 2, mitochondrial (Homo sapiens, UniProt P54819)
[2] = molecular target: T1, Serine/threonine-protein kinase A-Raf (Homo sapiens, UniProt P10398)
T1 sequence (P10398 whole entry): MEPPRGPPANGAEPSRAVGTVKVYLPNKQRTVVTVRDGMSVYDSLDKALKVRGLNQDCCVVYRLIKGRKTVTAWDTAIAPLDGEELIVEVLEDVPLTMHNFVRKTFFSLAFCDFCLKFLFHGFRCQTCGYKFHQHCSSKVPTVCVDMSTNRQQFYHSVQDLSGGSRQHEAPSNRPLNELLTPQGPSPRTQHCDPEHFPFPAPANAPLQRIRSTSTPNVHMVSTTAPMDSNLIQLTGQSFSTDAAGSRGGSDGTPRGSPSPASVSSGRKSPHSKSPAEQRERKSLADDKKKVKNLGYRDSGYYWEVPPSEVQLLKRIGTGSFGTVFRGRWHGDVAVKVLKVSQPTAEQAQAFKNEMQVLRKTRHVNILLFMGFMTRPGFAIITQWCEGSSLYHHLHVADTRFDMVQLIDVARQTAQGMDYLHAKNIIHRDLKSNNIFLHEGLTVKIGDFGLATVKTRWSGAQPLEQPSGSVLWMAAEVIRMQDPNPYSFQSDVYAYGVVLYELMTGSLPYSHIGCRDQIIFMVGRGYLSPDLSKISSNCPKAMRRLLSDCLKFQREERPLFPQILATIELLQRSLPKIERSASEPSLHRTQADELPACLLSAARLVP

[3] = molecular target: Serine/threonine-protein kinase B-raf (Homo sapiens, UniProt P15056)
Serine/threonine-protein kinase B-raf, sequence (P15056 whole entry): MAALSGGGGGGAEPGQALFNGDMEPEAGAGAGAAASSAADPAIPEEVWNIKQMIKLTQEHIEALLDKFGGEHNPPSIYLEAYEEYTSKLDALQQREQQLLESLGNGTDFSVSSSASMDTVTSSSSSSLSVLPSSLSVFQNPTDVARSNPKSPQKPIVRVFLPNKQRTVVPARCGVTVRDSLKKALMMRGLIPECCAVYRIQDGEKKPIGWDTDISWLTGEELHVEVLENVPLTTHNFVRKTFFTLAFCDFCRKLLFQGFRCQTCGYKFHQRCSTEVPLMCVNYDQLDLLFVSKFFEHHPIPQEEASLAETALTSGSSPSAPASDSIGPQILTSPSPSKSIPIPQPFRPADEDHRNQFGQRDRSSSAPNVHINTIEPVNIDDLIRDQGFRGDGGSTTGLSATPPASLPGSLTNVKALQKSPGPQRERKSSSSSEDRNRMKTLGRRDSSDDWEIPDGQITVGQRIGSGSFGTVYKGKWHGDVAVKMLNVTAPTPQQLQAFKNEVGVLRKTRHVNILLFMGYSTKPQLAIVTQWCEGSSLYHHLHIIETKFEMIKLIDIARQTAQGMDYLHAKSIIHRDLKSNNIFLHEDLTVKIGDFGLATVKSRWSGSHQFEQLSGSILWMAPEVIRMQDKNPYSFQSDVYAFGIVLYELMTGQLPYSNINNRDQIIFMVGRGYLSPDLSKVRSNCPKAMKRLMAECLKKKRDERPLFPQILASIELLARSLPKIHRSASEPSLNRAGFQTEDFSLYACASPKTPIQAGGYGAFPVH

[4] = molecular target: Serine/threonine-protein kinase/endoribonuclease IRE1 (Homo sapiens, UniProt O75460)
Serine/threonine-protein kinase/endoribonuclease IRE1, sequence (O75460 whole entry): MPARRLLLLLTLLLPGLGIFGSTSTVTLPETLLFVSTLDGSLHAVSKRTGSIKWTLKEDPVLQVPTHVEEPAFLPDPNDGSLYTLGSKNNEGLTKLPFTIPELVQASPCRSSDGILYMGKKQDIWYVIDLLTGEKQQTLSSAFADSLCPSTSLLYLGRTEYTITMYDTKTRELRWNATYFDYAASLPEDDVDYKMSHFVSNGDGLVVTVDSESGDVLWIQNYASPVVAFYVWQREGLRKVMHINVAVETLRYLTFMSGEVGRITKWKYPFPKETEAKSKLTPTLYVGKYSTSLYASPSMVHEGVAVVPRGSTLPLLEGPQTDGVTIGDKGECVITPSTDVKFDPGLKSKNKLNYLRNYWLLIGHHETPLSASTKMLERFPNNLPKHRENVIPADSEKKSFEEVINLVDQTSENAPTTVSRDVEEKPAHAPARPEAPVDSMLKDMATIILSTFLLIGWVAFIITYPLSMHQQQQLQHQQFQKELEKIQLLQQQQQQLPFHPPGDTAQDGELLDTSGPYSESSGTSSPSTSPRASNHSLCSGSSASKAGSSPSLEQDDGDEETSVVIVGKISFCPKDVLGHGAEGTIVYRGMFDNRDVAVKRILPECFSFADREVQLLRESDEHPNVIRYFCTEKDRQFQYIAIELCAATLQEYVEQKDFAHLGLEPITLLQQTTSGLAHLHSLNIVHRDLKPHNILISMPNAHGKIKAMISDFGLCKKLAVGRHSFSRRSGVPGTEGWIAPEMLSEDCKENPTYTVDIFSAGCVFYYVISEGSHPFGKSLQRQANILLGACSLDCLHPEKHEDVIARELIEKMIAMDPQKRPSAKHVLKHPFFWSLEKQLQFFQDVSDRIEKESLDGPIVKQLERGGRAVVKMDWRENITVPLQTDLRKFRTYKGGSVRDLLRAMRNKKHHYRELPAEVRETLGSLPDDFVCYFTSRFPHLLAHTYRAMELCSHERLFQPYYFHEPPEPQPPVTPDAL

[5] = molecular target: Inosine-5'-monophosphate dehydrogenase 2 (Homo sapiens, UniProt P12268)
[6] = molecular target: T2, Dual specificity mitogen-activated protein kinase kinase 6 (Homo sapiens, UniProt P52564)
T2 sequence (P52564 whole entry): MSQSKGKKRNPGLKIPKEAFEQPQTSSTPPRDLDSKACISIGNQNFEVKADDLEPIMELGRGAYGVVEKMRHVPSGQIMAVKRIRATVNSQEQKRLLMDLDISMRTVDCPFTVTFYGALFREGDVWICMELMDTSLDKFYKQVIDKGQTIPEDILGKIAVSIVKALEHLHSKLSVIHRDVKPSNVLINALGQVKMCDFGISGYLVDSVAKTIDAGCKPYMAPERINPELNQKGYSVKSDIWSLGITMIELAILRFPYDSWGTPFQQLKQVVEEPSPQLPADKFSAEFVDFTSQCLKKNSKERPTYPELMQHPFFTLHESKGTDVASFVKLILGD

[7] = molecular target: T3, Mitogen-activated protein kinase kinase kinase kinase 2 (Homo sapiens, UniProt Q12851)
T3 sequence (Q12851 whole entry): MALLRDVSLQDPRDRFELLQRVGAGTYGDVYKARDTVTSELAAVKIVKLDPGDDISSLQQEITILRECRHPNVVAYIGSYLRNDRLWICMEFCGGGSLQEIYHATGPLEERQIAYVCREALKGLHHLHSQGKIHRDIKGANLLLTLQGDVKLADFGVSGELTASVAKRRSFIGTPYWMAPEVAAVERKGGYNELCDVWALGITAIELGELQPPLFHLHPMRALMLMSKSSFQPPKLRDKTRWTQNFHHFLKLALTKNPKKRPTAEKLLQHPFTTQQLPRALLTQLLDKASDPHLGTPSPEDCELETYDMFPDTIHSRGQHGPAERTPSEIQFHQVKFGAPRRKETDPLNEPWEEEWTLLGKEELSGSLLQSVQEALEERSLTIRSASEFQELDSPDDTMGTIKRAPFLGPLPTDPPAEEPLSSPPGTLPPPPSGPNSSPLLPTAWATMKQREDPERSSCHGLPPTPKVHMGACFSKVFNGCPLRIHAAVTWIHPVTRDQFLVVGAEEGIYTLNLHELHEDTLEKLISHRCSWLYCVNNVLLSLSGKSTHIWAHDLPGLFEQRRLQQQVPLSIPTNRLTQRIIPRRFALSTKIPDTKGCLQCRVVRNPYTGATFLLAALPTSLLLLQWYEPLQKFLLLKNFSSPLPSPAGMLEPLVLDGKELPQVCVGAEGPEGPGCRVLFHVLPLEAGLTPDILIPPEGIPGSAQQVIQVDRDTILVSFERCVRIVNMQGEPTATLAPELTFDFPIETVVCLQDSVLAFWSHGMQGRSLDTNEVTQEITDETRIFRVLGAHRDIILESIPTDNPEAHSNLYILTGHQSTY

[8] = molecular target: Mitogen-activated protein kinase 11 (Homo sapiens, UniProt Q15759)
Mitogen-activated protein kinase 11, sequence (Q15759 whole entry): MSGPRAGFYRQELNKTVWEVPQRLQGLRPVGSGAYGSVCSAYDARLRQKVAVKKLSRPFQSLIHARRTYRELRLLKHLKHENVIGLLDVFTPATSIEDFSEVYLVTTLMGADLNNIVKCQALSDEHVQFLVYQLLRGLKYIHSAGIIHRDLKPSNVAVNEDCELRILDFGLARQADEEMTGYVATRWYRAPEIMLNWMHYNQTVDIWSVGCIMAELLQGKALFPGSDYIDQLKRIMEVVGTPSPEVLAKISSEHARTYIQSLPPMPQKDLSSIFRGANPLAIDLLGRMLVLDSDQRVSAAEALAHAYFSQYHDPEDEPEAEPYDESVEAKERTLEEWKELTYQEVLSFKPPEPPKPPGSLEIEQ

[9] = molecular target: cAMP-dependent protein kinase catalytic subunit gamma (Homo sapiens, UniProt P22612)
cAMP-dependent protein kinase catalytic subunit gamma, sequence (P22612 whole entry): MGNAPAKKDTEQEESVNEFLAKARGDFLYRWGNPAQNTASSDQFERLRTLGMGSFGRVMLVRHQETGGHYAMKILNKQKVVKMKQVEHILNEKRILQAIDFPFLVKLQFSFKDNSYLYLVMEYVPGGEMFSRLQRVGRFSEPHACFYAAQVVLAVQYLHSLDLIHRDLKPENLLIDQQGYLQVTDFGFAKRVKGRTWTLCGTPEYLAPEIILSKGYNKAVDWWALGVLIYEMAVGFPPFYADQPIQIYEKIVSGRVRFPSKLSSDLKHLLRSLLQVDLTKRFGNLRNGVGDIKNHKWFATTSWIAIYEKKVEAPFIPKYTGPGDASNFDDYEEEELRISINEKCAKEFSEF

[10] = molecular target: Protein kinase C beta type (Homo sapiens, UniProt P05771)
Protein kinase C beta type, sequence (P05771 whole entry): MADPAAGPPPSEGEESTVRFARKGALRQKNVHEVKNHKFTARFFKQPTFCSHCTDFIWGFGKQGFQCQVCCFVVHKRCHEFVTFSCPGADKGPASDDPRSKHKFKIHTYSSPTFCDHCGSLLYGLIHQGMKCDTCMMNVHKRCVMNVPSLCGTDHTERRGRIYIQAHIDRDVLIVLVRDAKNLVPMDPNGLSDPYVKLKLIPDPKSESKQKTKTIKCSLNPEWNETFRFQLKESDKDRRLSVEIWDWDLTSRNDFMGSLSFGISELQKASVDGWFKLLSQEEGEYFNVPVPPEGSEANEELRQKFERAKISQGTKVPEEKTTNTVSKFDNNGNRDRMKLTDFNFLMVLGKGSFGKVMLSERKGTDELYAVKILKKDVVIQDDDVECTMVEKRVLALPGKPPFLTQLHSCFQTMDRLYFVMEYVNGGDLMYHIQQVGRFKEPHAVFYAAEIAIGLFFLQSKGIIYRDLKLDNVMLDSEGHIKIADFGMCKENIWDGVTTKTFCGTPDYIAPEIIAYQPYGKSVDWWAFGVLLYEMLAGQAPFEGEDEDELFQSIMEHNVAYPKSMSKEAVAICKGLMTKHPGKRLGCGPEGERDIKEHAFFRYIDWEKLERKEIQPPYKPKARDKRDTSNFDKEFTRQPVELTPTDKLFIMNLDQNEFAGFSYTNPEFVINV

[11] = molecular target: Ribosomal protein S6 kinase beta-1 (Homo sapiens, UniProt P23443)
Ribosomal protein S6 kinase beta-1, sequence (P23443 whole entry): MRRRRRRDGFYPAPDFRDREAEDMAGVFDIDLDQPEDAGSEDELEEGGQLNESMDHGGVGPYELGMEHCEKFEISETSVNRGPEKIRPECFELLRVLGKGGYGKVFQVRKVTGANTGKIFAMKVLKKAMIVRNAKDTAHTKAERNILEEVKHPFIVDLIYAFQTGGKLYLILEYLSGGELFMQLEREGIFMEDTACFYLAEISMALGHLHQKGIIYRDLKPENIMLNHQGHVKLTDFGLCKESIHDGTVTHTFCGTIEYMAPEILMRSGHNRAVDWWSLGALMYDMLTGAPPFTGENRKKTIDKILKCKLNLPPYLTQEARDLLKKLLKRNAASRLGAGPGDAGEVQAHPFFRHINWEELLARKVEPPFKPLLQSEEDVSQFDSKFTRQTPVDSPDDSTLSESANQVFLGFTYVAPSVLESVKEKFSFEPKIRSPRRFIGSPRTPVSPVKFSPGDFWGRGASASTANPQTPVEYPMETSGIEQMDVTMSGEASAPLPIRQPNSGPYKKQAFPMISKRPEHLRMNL

[12] = molecular target: T4, Uncharacterized protein FLJ45252 (Homo sapiens, UniProt Q6ZSR9); details: read-out: Kd apparent; k-562, colo 205, sk-n-be(2) and mv-4-11
T4 sequence (Q6ZSR9 whole entry): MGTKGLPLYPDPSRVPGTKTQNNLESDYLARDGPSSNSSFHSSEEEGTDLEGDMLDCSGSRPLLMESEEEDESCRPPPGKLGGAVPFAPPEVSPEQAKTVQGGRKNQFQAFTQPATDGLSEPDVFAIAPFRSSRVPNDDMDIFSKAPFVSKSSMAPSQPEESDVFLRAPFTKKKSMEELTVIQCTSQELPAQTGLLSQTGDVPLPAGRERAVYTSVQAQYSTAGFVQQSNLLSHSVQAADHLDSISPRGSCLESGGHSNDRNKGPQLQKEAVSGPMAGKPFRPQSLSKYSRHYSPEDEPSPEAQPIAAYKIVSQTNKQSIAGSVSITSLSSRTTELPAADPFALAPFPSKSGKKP
Further: in the data inactive means no Kd found up to 30 µM.

Kd (Actin-related protein 2)	Kd [5]	SMILES	Kd [1]	Kd [2]	Kd [3]	Kd [4]	Kd [6]	Kd [7]	Kd [8]	Kd [9]	Kd [10]	Kd [11]	Kd [12]
> 30 µM (inactive)	> 30 µM (inactive)	FC(F)(F)c1ccc(CNc2ccc(Cc3c[nH]c4ncc(Cl)cc34)cn2)cn1 [PEXIDARTINIB]	> 30 µM (inactive)	> 30 µM (inactive)	> 30 µM (inactive)	> 30 µM (inactive)	> 30 µM (inactive)	> 30 µM (inactive)	> 30 µM (inactive)	> 30 µM (inactive)	> 30 µM (inactive)	> 30 µM (inactive)	
	> 30 µM (inactive)	CC[C@@](C)(Nc1ccnc(-c2c[nH]c3ncccc23)n1)C(=O)NCC(F)(F)F [DECERNOTINIB]	> 30 µM (inactive)	> 30 µM (inactive)	> 30 µM (inactive)	> 30 µM (inactive)	> 30 µM (inactive)	> 30 µM (inactive)	> 30 µM (inactive)	> 30 µM (inactive)	0.426 µM (active)	> 30 µM (inactive)	2.64 µM (active)
		C=CCN(/C=C1/C(=O)O[C@H](COC)[C@@]2(C)C1=C(O)C(=O)C1=C2[C@H](OC(C)=O)C[C@]2(C)C(=O)CC[C@@H]12)CC=C [SONOLISIB]		> 30 µM (inactive)	> 30 µM (inactive)	> 30 µM (inactive)	> 30 µM (inactive)	> 30 µM (inactive)	> 30 µM (inactive)	0.007 µM	> 30 µM (inactive)	> 30 µM (inactive)	> 30 µM (inactive)
> 30 µM (inactive)	> 30 µM (inactive)	COc1cccc(Nc2ncnn3ccc(CN4CC[C@@H](N)[C@H](O)C4)c23)c1 [BMS-690514]	> 30 µM (inactive)	> 30 µM (inactive)	> 30 µM (inactive)	> 30 µM (inactive)	> 30 µM (inactive)	> 30 µM (inactive)	> 30 µM (inactive)	> 30 µM (inactive)	> 30 µM (inactive)	> 30 µM (inactive)	
> 30 µM (inactive)		O[C@H]1CC[C@H](Nc2ncc3nc(Nc4c(F)cc(F)cc4F)n([C@H]4CCOC4)c3n2)CC1 [TANZISERTIB]	> 30 µM (inactive)	> 30 µM (inactive)	> 30 µM (inactive)	1.36 µM (active)	> 30 µM (inactive)	> 30 µM (inactive)	> 30 µM (inactive)	> 30 µM (inactive)	> 30 µM (inactive)	> 30 µM (inactive)	> 30 µM (inactive)
> 30 µM (inactive)		Cc1cc(-c2cc(OC(=O)c3ccccc3)ccc2Cl)cc2nnc(Nc3ccc(OCCN4CCCC4)cc3)nc12 [TG100-801]	> 30 µM (inactive)	> 30 µM (inactive)	> 30 µM (inactive)	> 30 µM (inactive)	> 30 µM (inactive)	> 30 µM (inactive)	> 30 µM (inactive)	> 30 µM (inactive)	> 30 µM (inactive)	> 30 µM (inactive)	> 30 µM (inactive)
		CNC(=O)c1ccc(Nc2ncc(C(F)(F)F)c(NCc3nccnc3N(C)S(C)(=O)=O)n2)cc1 [DEFACTINIB]	> 30 µM (inactive)	> 30 µM (inactive)	> 30 µM (inactive)	> 30 µM (inactive)	> 30 µM (inactive)	> 30 µM (inactive)	> 30 µM (inactive)	> 30 µM (inactive)	> 30 µM (inactive)	> 30 µM (inactive)	> 30 µM (inactive)
> 30 µM (inactive)	> 30 µM (inactive)	NC(=O)c1ccc(N(C(N)=O)c2c(F)cccc2F)nc1-c1ccc(F)cc1F [VX-702]	> 30 µM (inactive)	> 30 µM (inactive)	> 30 µM (inactive)	> 30 µM (inactive)	> 30 µM (inactive)	> 30 µM (inactive)		> 30 µM (inactive)	> 30 µM (inactive)	> 30 µM (inactive)	> 30 µM (inactive)

SMILES	Kd (Actin-related protein 2)	Kd [5]	Kd [1]	Kd [2]	Kd [3]	Kd [4]	Kd [6]	Kd [7]	Kd [8]	Kd [9]	Kd [10]	Kd [11]	Kd [12]
COc1cc(F)c(F)c(Nc2ccc(I)cc2F)c1NS(=O)(=O)C1(C[C@H](O)CO)CC1 [REFAMETINIB]		> 30 µM (inactive)	> 30 µM (inactive)	> 30 µM (inactive)	> 30 µM (inactive)	> 30 µM (inactive)	> 30 µM (inactive)	> 30 µM (inactive)	> 30 µM (inactive)	> 30 µM (inactive)	> 30 µM (inactive)	> 30 µM (inactive)	> 30 µM (inactive)
CC(C)CC(=O)Nc1[nH]nc2c1CN(C(=O)C1CCN(C)CC1)C2(C)C [PHA-793887]	> 30 µM (inactive)	> 30 µM (inactive)	> 30 µM (inactive)	> 30 µM (inactive)	> 30 µM (inactive)	> 30 µM (inactive)		> 30 µM (inactive)	> 30 µM (inactive)	> 30 µM (inactive)	> 30 µM (inactive)	> 30 µM (inactive)	> 30 µM (inactive)
Cc1c(NC(=O)OC[C@@H]2COCCN2)cn2ncnc(Nc3ccc4c(cnn4Cc4cccc(F)c4)c3)c12 [AC-480]	> 30 µM (inactive)		> 30 µM (inactive)	> 30 µM (inactive)	> 30 µM (inactive)	> 30 µM (inactive)	> 30 µM (inactive)	> 30 µM (inactive)	> 30 µM (inactive)	> 30 µM (inactive)	> 30 µM (inactive)	> 30 µM (inactive)	> 30 µM (inactive)
C=CC(=O)Nc1cc(Nc2nccc(-c3cn(C)c4ccccc34)n2)c(OC)cc1N(C)CCN(C)C [OSIMERTINIB]	> 30 µM (inactive)	> 30 µM (inactive)	> 30 µM (inactive)	> 30 µM (inactive)	> 30 µM (inactive)	> 30 µM (inactive)	> 30 µM (inactive)	> 30 µM (inactive)	> 30 µM (inactive)	> 30 µM (inactive)	> 30 µM (inactive)	> 30 µM (inactive)	
CN1CCN(c2nc(C3=C(c4c[nH]c5ccccc45)C(=O)NC3=O)c3ccccc3n2)CC1 [SOTRASTAURIN]	> 30 µM (inactive)		> 30 µM (inactive)	> 30 µM (inactive)	> 30 µM (inactive)	> 30 µM (inactive)	> 30 µM (inactive)	> 30 µM (inactive)	> 30 µM (inactive)	> 30 µM (inactive)		> 30 µM (inactive)	> 30 µM (inactive)
